Values of other authors in patent US7638270B2, “Nucleic acids and corresponding proteins entitled 254P1D6B useful in treatment and detection of cancer” (Agensys, Inc., priority 2003, dated 2009).

System: HLA-DR alleles

## xKXVAAWTLKAAx: pan-DR-binding epitope peptide (SEQ ID NO: 16); X is cyclohexylalanine, phenylalanine or tyrosine
  binding to HLA-DR alleles: bind to most HLA-DR alleles
Regardless of HLA type
  stimulation of the response of T helper lymphocytes: stimulate the response of T helper lymphocytes from most individuals
